The values that follow come from patent publication US20020137901A1, “Synthesis, and photodynamic therapy-mediated anti-cancer, and other uses of chlorin e6-transferrin” (priority 2001, published 2002).

Test [1] deals with MTLn3 cells. In words: Cell killing assay, protocol B (serum-containing, one-day exposure). It counts as cell-based, rat. As for the experimental part:
(§1) FIG. 6. […] This was a one-day exposure, serum-containing assay performed using protocol B described in the cell killing section. Cells were plated in 24 well plates and grown to confluency. On day one, media was changed and increasing levels of Ce6-Tf were added to test wells to a final concentration from 7.5 to 30 ug/ml. Native Tf was added to control wells at 30 ug/ml. On day 2, media was changed to that without added Ce6-Tf or Tf. On days 2, 3, and 4, cells were exposed to light from an X-ray film box for 15 min. Media was changed each day. On day five, all cells were fixed, stained, and quantitated using the crystal violet stain assay. Stained cell numbers were evaluated using a Bio-Rad Multi-imager. Images of the stained plates are shown in A and B. The results of image analysis are shown in C and D, where ODU/mm2 correlates with cell number.
(§2) FIG. 8. A: Effect of Ce6 alone on the viability of Rat MTLn3 cells. Cells were tested as per method B outlined in the cell killing procedure description. Confluent cells in ∝MEM containing 5% FBS were exposed to the indicated concentrations of Ce6, Ce6-Tf, or Tf alone. One day later, media was changed to that without added Ce6-Tf or Tf, and all cells were exposed to light for 15 min. This was repeated on days two and three. Cells were then fixed and stained with Coomassie blue. An image of the stained wells is shown. […] B: Effect of excess Tf on the killing effect of Ce6-Tf Cells were set up similarly as above, except that treatments consisted of Ce6-Tf, or Ce6-Tf in conjunction with 500 or 1,000 μg/ml native Tf. Light exposure, media changes, and cell staining were carried out as in A. An image of the stained wells is shown.
(§3) B: Serum-containing, one day exposure assays. For these, serum was maintained, to emulate in vivo conditions where excess endogenous normal transferrin would be present. In addition, the Ce6-Tf exposure was limited to I day to emulate a one time Ce6-Tf injection. Target cells were grown to confluence in 24 well plates. On the day of the assay, media in all wells was replaced with 1 ml of fresh serum-containing media and increasing levels of Ce6-Tf added to test wells. Native human holo-Tf was added, at the highest Ce6-Tf dose, to control wells. One day after Tf addition, media in all plates was changed to normal culture media (without Ce6Tf).
With both assay methods, two plates for each line to be tested were plated and treated identically. One day after Ce6-Tf addition, test plates were exposed to the light from an X-ray film box for 15 min.: the box was placed horizontally and the culture plates placed directly on the cover glass. The parallel plate from a given line was kept in the dark. The light treatment was repeated for 3 days. Media was changed (with [A] or without [B] added Ce6-Tf ) each day, to maintain cell viability. On the fourth day, the cells were quantitated using a crystal violet stain assay: wells were drained and washed 4 times with 2 ml PBS; cells were fixed with 1 ml 5% v/v glutaraldehyde (in PBS) at 25° C. for 20 min.; wells were washed 4 times with 2 ml distilled water and stained with 1 ml of a 1:1 (v:v) mixture of 0.2% (w/v) crystal violet and 100 mM CAPS (pH 9.0). Wells were drained and washed 4 times with 2 ml distilled water. After drying, cell density was determined using a Bio-Rad Multiimager, where ODU/mm2 correlates with cell number.
Effect of Ce6 alone: To determine if Ce6 alone, if added in appropriate concentrations, would induce cell death. […]

In test [2] the test system is Rat MTLn3 mammary adenocarcinoma cells. In words: Low serum growth assay. It counts as cell-based. Conditions: αMEM 0.3% FBS, increasing levels of protein, four days. As for the experimental part: FIG. 2. Effect of chorin e6 on the growth of Rat MTLn3 mammary adenocarcinoma cells. Cells were plated at 2,000 cells/well in 96 well plates in ∝MEM containing 5% FBS. One day after plating, media was changed to ∝MEM containing 0.3% FBS. Increasing levels of human holo-Tf (Native Tf) or human Ce6-Tf (both in PBS) were added to respective wells, in the amount indicated. Four days later, cells were quantitated using a crystal violet stain assay, where A590 correlates with cell number. A: an image of the crystal violet stained plate used in the assay is shown. B: A plot of the absorbances from A. Cell number and is seen to rise as the cells are exposed to increasing levels of native human Tf.
Growth assays: Rat MTLn3 mammary adenocarcinoma cells were plated at 2,000 cells/well in 96 well plates in ∝MEM containing 5% FBS. One day after plating, media was changed to ∝MEM containing 0.3% FBS. Increasing levels of human holo-Tf or human Ce6-Tf (both in PBS) were added to respective wells. Four days later, cells were quantitated using a crystal violet stain assay.

Test [3] has as its target T1, transferrin receptor (Rattus norvegicus, UniProt Q99376).
T1 construct: endogenous in cells; host or cells: Rat MTLn3 mammary adenocarcinoma cells (intact monolayers at 4 °C)
In words: Competition of FITC-Tf binding to cell surfaces (Western blot detection). Conditions: competitor 1 mg/ml, FITC-Tf 100 μg/ml, 4° C., 2 h. As for the experimental part: FIG. 4. Competition of FITC-Tf binding to cell surfaces by Ce6-Tf. Transferrin solvent, human Ce6-Tf, or native human Tf were added to Rat MTLn3 mammary adenocarcinoma cell monolayers equilibrated to 4° C. The final concentration of both transferrins was 1 mg/ml. FITC- human Tf was then added to all wells at 100 μg/ml. After a 2 h incubation, cells were washed, lysed, electrophoresed, blotted, and examined for FITC content by incubation with anti-FITC and an HRP-conjugated second antibody, followed by ECL. A strong band at 70,000 Kd was seen from cell lysates which received FITC-Tf only (lanes 4 and 5), indicating FITC-Tf binding to the cells. […] Lanes 1-3 were loaded with known amounts of pure FITC-Tf, for standardization. An image of the ECL X-ray film is shown.
Competition binding: This measures the ability of a material to inhibit the binding of FITC-transferrin to cell surfaces. FITC-Tf bound to the cells is detected by Western blotting of cell lysates and specific antibody-based detection of FITC in those. Rat MTLn3 mammary adenocarcinoma cells were grown to confluence in 12 well plates using media consisting of ocMM containing 5% v/v fetal bovine serun (FBS). […] Lysate protein was determined using the BCA assay (Pierce Chemical). […] The blot was blocked and FITC-TF was detected by treatment with rabbit anti-FITC then with anti-rabbit IG-HRP followed by ECL using an HRP substrate.

Test [4] has as its system Rat MTLn3 mammary adenocarcinoma cells. In words: Cell killing assay, protocol A (serum-free, continuous exposure). The note with it: 1.25 to 5.0 μg/ml. In kind it is cell-based. Here is the method:
FIG. 5. […] This was a continuous exposure, serum-free assay performed using protocol A described in the cell killing section. Cells were plated in 24 well plates and grown to confluency in ∝MEM containing 5% v/v FBS. On day one, media was changed to ∝MEM only and increasing levels of Ce6-Tf were added to test wells to a final concentration from 1.25 to 5.0 μg/ml. Native Tf was added to control wells at 5.0 μg/ml. On days 2, 3, and 4, cells were exposed to light from an X-ray film box for 15 min. Media and all Tf was changed each day. On day five, all cells were quantitated using the crystal violet stain assay. Images of the stained plates are shown in A. Stained cell numbers were evaluated using a Bio-Rad Multi-imager. The results of image analysis are shown in B, where ODU/mm2 correlates with cell number. […]
(§4) With both assay methods, two plates for each line to be tested were plated and treated identically. […] On the fourth day, the cells were quantitated using a crystal violet stain assay: wells were drained and washed 4 times with 2 ml PBS; cells were fixed with 1 ml 5% v/v glutaraldehyde (in PBS) at 25° C. for 20 min.; wells were washed 4 times with 2 ml distilled water and stained with 1 ml of a 1:1 (v:v) mixture of 0.2% (w/v) crystal violet and 100 mM CAPS (pH 9.0). […] After drying, cell density was determined using a Bio-Rad Multiimager, where ODU/mm2 correlates with cell number.

Test [5] concerns MTLn3 cells. In words: Transferrin competition of cell killing. It counts as cell-based, rat. Conditions: MTLn3, 30 ug/ml Ce6Tf plus 500 or 1,000 μg/ml native Tf, light. Here is the method: as §2
Transferrin competition of cell killing: These were performed to ensure that Ce6-Tf's cell killing effect was due to the function of the transferrin ligand: that the light-induced killing effect could be neutralized with excess native Tf Method B. from above was used. Confluent cultures of MTLn3 cells in 24 well plates were treated with 30 ug/ml of Ce6Tf. […] Light-induced killing assays were continued and cells quantitated as stated above in method B.

In test [6] the test system is Human MCF7 breast cancer cells. As to the kind of experiment: Cell killing assay, protocol B (serum-containing, one-day exposure). The note with it: MCF7, 7.5 to 30 ug/ml. In kind it is cell-based. As for the experimental part:
FIG. 7. […] Cells were plated in 24 well plates and grown to confluency. On day one, media was changed and increasing levels of Ce6-Tf were added to test wells to a final concentration from 7.5 to 30 ug/ml. Native Tf was added to control wells at 30 ug/ml. On day 2, media in all wells was changed to that without added Ce6-Tf or Tf On days 2, 3, and 4, cells were exposed to light from an X-ray film box for 15 min. Media was changed each day. On day five, all cells were fixed, stained, and quantitated using the crystal violet stain assay. Stained cell numbers were evaluated using a Bio-Rad Multi-imager. Images of the stained plates are shown in A. The results of image analysis are shown in B, where ODU/mm2 correlates with cell number. […]
as §4

The test system of test [7] is NRK cells. The test is described as above. In kind it is cell-based, rat. As for the experimental part:
as §1, §3, §4

T1 sequence (Q99376 whole entry): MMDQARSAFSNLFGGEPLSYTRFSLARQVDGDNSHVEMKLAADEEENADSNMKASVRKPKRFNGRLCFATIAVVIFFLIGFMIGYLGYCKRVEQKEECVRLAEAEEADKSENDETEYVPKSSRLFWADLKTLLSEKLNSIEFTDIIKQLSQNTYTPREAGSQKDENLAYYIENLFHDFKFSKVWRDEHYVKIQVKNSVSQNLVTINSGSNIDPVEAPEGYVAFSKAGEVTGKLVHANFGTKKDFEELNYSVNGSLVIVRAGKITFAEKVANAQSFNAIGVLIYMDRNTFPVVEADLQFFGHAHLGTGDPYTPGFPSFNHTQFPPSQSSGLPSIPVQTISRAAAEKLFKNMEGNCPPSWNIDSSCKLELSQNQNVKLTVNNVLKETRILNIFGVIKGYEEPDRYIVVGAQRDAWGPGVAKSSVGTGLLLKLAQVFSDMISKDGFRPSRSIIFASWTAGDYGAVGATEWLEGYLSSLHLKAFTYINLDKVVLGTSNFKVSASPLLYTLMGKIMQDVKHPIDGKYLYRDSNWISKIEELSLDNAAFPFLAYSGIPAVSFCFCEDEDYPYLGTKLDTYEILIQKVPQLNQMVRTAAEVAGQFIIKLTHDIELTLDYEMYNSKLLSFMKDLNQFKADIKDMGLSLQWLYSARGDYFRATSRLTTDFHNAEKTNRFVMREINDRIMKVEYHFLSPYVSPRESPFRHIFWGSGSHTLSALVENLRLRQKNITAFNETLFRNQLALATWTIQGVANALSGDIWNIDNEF

Take chlorin e6 [Ce6, reference compound]: the “Cell killing effect of Ce6 alone with light” value in test [1] (MTLn3, method B, free Ce6 4.3 uM (2.5 μg/ml), light 15 min on three days) was “no cell killing effect”.

For the substance “Native Tf: Un-conjugated iron-saturated human transferrin (Sigma Chemical), used as control”, the “Effect on cell growth (cell number, crystal violet A590)” value in test [2] is on record as “seen to rise”. In test [3], the “Competition of FITC-Tf binding to cell surfaces” value was “competed out the FITC-Tf”.

On to chlorin e6-transferrin [Ce6-Tf], for which the “Cell killing with light exposure (cell number, ODU/mm2)” value in test [4] (light 15 min on days 2, 3, 4) is listed as “light-dependent killing”; in test [6] (one-day exposure, light 15 min on days 2, 3, 4), “light-dependent killing”; in test [1] (MTLn3, 7.5 to 30 ug/ml, one-day exposure, light 15 min on days 2, 3, 4), “light-dependent killing”; in test [7] (7.5 to 30 ug/ml, one-day exposure, light 15 min on days 2, 3, 4) it was “light-dependent killing”. The “Cell numbers, plates kept in the dark” value in test [4] (no light) and in test [6] (no light) was “no loss of cell numbers” throughout. Also, the “Killing effect of Ce6-Tf in presence of excess native Tf” value in test [5] is “diminished the killing effect”. For the same substance, the “Effect on cell growth (cell number, crystal violet A590)” value in test [2] is given as “similar, albeit slightly lower rise”. For the same substance, the “Change in cell numbers at the 15 ug/ml dose with light” value was “showed a decrease in cell numbers” in test [1] (MTLn3, 15 ug/ml, light) and “did not” in test [7] (15 ug/ml, light). Besides, the “Cell numbers, plates maintained in the dark” value in test [1] (MTLn3, 7.5 to 30 ug/ml, no light) was “no loss of cell numbers”; in test [7] (7.5 to 30 ug/ml, no light), “no loss of cell numbers”. Further, the Light-induced cell death entry in test [1] (initially present at 0.43 uM (30 ug/ml)) was “very active”. Also, the “Competition of FITC-Tf binding to cell surfaces” value in test [3] is on record as “competed out the FITC-Tf”.
